tested on: 1st-stage larvae of Haemonchus contortus; experiment: Test for effect on motion of larvae of Haemonchus nematode (Haemonchus contortus); type: cell-based; details: 20 larvae per well, 27° C./95% RH for 4 days, corrected for DMSO negative control, duplicate
Protocol: Test for Effect on Motion of Larvae of Haemonchus Nematode (Haemonchus contortus)
The compound of the present invention was prepared as solutions in 100% DMSO at the final concentrations of 50 ppm, 5 ppm, 0.5 ppm, 0.05 ppm and 0.005 ppm. DMSO stands for dimethyl sulfoxide.
A larval suspension containing 1st-stage larvae of Haemonchus contortus harvested by the Baermann technique (for example, see K. Nakazono et al., “Inclination of Baermann funnel wall and efficiency of nematode extraction” Proc. Assoc. Pl. Prot. Kyushu 33; 126-130 (1987) was placed at a density of 20 larvae per well in a test place, and 0.5 μL/well of the test solution containing the compound of the present invention diluted to a predetermined concentration was added to the test plate. The plate was kept, under the conditions of 27° C./95% RH for 4 days. In the test, ivermectin was used for the positive control and DMSO was used for the negative control.
The motor ability of the larvae was examined with an automatic analyzer equipped with an LCD camera. The inhibitory effect on the motion of the larvae in each treatment plot was corrected based on the inhibitory effect in the plot treated with DMSO only for the negative control. The EC50 value was calculated from the data on the corrected inhibitory effect on the motion of the larvae, and graded according to the criteria shown below.
The test was conducted in duplicate per plot.

Structure (SMILES)	EC50 value, inhibitory effect on the motion of the larvae (graded)
CC(CNC(=O)c1nccnc1C(F)(F)F)c1ccc(Oc2ncc(C(F)(F)F)cc2Cl)cc1Cl (racemic) [Compound 1-22]	C or higher
CC(CNC(=O)c1nccnc1C(F)(F)F)c1ccc(Oc2ccc(C(F)(F)F)cn2)cc1Cl (racemic) [Compound 1-23]	C or higher
CC(CNC(=O)c1nccnc1C(F)(F)F)c1ccc(Oc2ncc(Cl)cc2Cl)cc1Cl (racemic) [Compound 1-24]	C or higher
COC(CNC(=O)c1nccnc1C(F)(F)F)c1ccc(Oc2ncc(C(F)(F)F)cc2Cl)cc1Cl (racemic) [Compound 1-38]	C or higher
COC(CNC(=O)c1nccnc1C(F)(F)F)c1ccc(Oc2ccc(C(F)(F)F)cn2)cc1Cl (racemic) [Compound 1-39]	C or higher
COC(CNC(=O)c1nccnc1C(F)(F)F)c1ccc(Oc2ncc(Cl)cc2Cl)cc1Cl (racemic) [Compound 1-40]	C or higher
COC(CNC(=O)c1nccnc1C(F)(F)F)c1ccc(Oc2nc3ccccc3s2)cc1Cl (racemic) [Compound 1-41]	C or higher
COC(CNC(=O)c1nccnc1C(F)(F)F)c1ccc(Oc2cccnc2)cc1Cl (racemic) [Compound 1-45]	C or higher
O=C(NCCc1ccc(Oc2ccc(C(F)(F)F)cn2)cc1Cl)c1nccnc1C(F)(F)F [Compound 1-2]	C or higher
O=C(NCCc1ccc(Oc2ncc(Cl)cc2Cl)cc1Cl)c1nccnc1C(F)(F)F [Compound 1-3]	C or higher
O=C(NCCc1ccc(Oc2ncc(Br)cc2Cl)cc1Cl)c1nccnc1C(F)(F)F [Compound 1-4]	C or higher
O=C(NCCc1ccc(Oc2cnccn2)cc1Cl)c1nccnc1C(F)(F)F [Compound 1-7]	C or higher
COc1cc(OC)nc(Oc2ccc(CCNC(=O)c3nccnc3C(F)(F)F)c(Cl)c2)n1 [Compound 1-8]	C or higher
O=C(NCCc1ccc(Oc2ccnc(Cl)n2)cc1Cl)c1nccnc1C(F)(F)F [Compound 1-10]	C or higher
O=C(NCCc1ccc(Oc2cc(Cl)nc(Cl)n2)cc1Cl)c1nccnc1C(F)(F)F [Compound 1-11]	C or higher
Cc1cc(Oc2ccc(CCNC(=O)c3nccnc3C(F)(F)F)c(Cl)c2)nc(Cl)n1 [Compound 1-12]	C or higher
Cc1cnc(Cl)nc1Oc1ccc(CCNC(=O)c2nccnc2C(F)(F)F)c(Cl)c1 [Compound 1-13]	C or higher
O=C(NCCc1ccc(Oc2ccc3ccccc3n2)cc1Cl)c1nccnc1C(F)(F)F [Compound 1-15]	C or higher

Structure (SMILES)	EC50 value, inhibitory effect on the motion of the larvae (graded)
O=C(NCCc1ccc(Oc2cnc3ccccc3n2)cc1Cl)c1nccnc1C(F)(F)F [Compound 1-16]	C or higher
O=C(NCCc1ccc(Oc2nc3ccccc3s2)cc1Cl)c1nccnc1C(F)(F)F [Compound 1-17]	C or higher
O=C(NCCc1ccc(Oc2nc3ccc(Cl)cc3s2)cc1Cl)c1nccnc1C(F)(F)F [Compound 1-18]	C or higher
O=C(NCCc1ccc(Oc2nc3ccccc3o2)cc1Cl)c1nccnc1C(F)(F)F [Compound 1-19]	C or higher
O=C(NCCc1ccc(Oc2ccc(C(F)(F)F)cc2)cc1Cl)c1nccnc1C(F)(F)F [Compound 1-21]	C or higher
CC(C)(CNC(=O)c1nccnc1C(F)(F)F)c1ccc(Oc2ncc(C(F)(F)F)cc2Cl)cc1Cl [Compound 1-25]	C or higher
CC(C)(CNC(=O)c1nccnc1C(F)(F)F)c1ccc(Oc2ccc(C(F)(F)F)cn2)cc1Cl [Compound 1-26]	C or higher
CC(C)(CNC(=O)c1nccnc1C(F)(F)F)c1ccc(Oc2ncc(Cl)cc2Cl)cc1Cl [Compound 1-27]	C or higher
O=C(NCC1(c2ccc(Oc3ncc(C(F)(F)F)cc3Cl)cc2Cl)CC1)c1nccnc1C(F)(F)F [Compound 1-28]	C or higher
O=C(NCC1(c2ccc(Oc3ccc(C(F)(F)F)cn3)cc2Cl)CC1)c1nccnc1C(F)(F)F [Compound 1-29]	C or higher
O=C(NCC1(c2ccc(Oc3ncc(Cl)cc3Cl)cc2Cl)CC1)c1nccnc1C(F)(F)F [Compound 1-30]	C or higher
O=C(NCCc1ccc(-c2ccc(C(F)(F)F)cc2)cc1Cl)c1nccnc1C(F)(F)F [Compound 1-31]	C or higher
O=C(NCCc1ccc(-c2cccc(C(F)(F)F)c2)cc1Cl)c1nccnc1C(F)(F)F [Compound 1-32]	C or higher
O=C(NCCc1ccc(-c2cc(F)cc(F)c2)cc1Cl)c1nccnc1C(F)(F)F [Compound 1-33]	C or higher
O=C(NCCc1ccc(-c2ccccc2)cc1Cl)c1nccnc1C(F)(F)F [Compound 1-35]	C or higher
O=C(NCCc1ccc(-c2ccncc2)cc1Cl)c1nccnc1C(F)(F)F [Compound 1-36]	C or higher
O=C(NCCc1ccc(-c2cccnc2)cc1Cl)c1nccnc1C(F)(F)F [Compound 1-37]	C or higher
